Laboratory results: patent publication US20230233576A1, “ECLITASERTIB FOR USE IN TREATING CONDITIONS INVOLVING SYSTEMIC HYPERINFLAMMATORY RESPONSE” (priority 2020, published 2023)

Test system: adult participants hospitalized for severe COVID-19
Assay: Phase 1b severe COVID-19 study: oxygenation (SpO2, SpO2/FiO2 ratio, days without oxygen support, VFD, RFFD)
Type: in vivo, human
Settings: for Change from baseline in SpO2/FiO2 ratio, point estimate / Change from baseline in SpO2/FiO2 ratio, adjusted treatment difference RIPK1 Inhibitor vs placebo: MMRM, LOCF; for median change from baseline in SpO2/FiO2 ratio: observed data; for median change in SpO2/FiO2 ratio from baseline: LOCF imputation
Method: This study was a multinational, multi-center, double-blind, 2:1 randomized (RIPK1 Inhibitor to placebo), placebo-controlled study in adult participants hospitalized for severe COVID-19.
Participants were assigned to treatment according to randomization list. Six RIPK1 Inhibitor 50 mg capsules (300 mg) or matching placebo capsules were administered orally in fasting or fed conditions twice a day (BID). For participants intubated with feeding tube in place, the IMPs were given as suspension by feeding tube.
The main secondary clinical assessments endpoints included: • Time to 50% decrease from baseline in CRP level • Time to improvement of oxygenation as measured by oxygen saturation≥92% breathing room air over 48 hours or until discharge • Change from baseline in SPO2/FiO2 ratio at Day 7
Other secondary clinical assessment endpoints included: • Number of Days without need for oxygen support and alive (oxygen saturation≥92% breathing room air) up to Day 28 • Numbers of Ventilator-free days and alive up to Day 28 • Change from baseline in markers of inflammation (White blood cell count, differential blood lymphocytes, neutrophil to lymphocyte ratio, IL-6) and D-Dimer at Day 7 and EOT • Incidence of Deaths up to Day 28 • Percentage of participants receiving thrombolytic treatment up to Day 28 • Percentage of participants receiving vasopressor treatment up to Day 28 • Numbers of Respiratory Failure-Free Days (RFFD) and alive up to Day 28
The time to improvement of oxygenation as measured by oxygen saturation>92% breathing room air over 48 hours or until discharge was estimated using the Kaplan-Meier approach and treatment arms were compared in an exploratory fashion using the log-rank test.
Presence of SO2≥92% without use of any supplemental oxygen device on two consecutive days (earliest occurrence) or at day of discharge was considered as event. If such criterion was not met, time to event was censored at the time point of the last observation of SpO2 collected. For participants who died during the study without experiencing the event, similar LOCF approached was used and a sensitivity analysis was performed as described in Section 1.7.1.1.2.1.
The number and percentage of participants who experience the event without applying censoring rules was reported at Days 3, 5, 7, 15 and 28.
The analysis of the change from baseline in SpO2/FiO2 ratio was based on a MMRM model fitted on observed values for Days 2, 3, 4, 5, 6, 7 and 15. The model included fixed effects for participant-specific SpO2/FiO2 ratio at baseline, respective visit, treatment group, and visit-by-treatment group interaction, and random effects for sites. Repeated measurements for each visit were taken within participant assuming an unstructured covariance pattern within treatment group.
The LS means for the difference in change from baseline at Day 7 between RIPK1 Inhibitor and placebo were provided, jointly with the corresponding 90% confidence interval.
The point estimate of the change from baseline in SpO2/FiO2 ratio and the difference between treatment groups and two-sided 90% confidence interval value were reported for Day 2 to 7 and EOT as described above. Time profile plots of point estimates of the change from baseline (+/−90% Cis) were presented by treatment group.
Missing values for the change from baseline in SpO2/FiO2 ratio were replaced following the LOCF approach, regardless if occurring before or after discontinuation/discharge/death. In case no LOCF could be identified (e.g., no post-baseline value prior to Day 2 to replace a missing Day 2 result), the missing value was not imputed. A sensitivity analysis was performed by repeating the above analysis without any imputation of missing values.

[1] = 600 mg, Baseline, Efficacy population
[2] = 600 mg, Day 2, Efficacy population
[3] = 600 mg, Day 3, Efficacy population
[4] = 600 mg, Day 4, Efficacy population
[5] = 600 mg, Day 5, Efficacy population
[6] = 600 mg, Day 6, Efficacy population
[7] = 600 mg, Day 7, Efficacy population
[8] = 600 mg, Day 8, Efficacy population
[9] = 600 mg, Day 9, Efficacy population
[10] = 600 mg, Day 10, Efficacy population
[11] = 600 mg, Day 11, Efficacy population
[12] = 600 mg, Day 12, Efficacy population
[13] = 600 mg, Day 13, Efficacy population
[14] = 600 mg, Day 14, Efficacy population
[15] = 600 mg, Day 15, Efficacy population
[16] = 600 mg, up to Day 28, Efficacy population

Compound: CN1C(=O)[C@@H](NC(=O)c2nnc(Cc3ccccc3)[nH]2)COc2cccnc21 [RIPK1 Inhibitor, (S)-5-benzyl-N-(5-methyl-4-oxo-2,3,4,5-tetrahydropyrido[3,2-b][1,4]oxazepin-3-yl)-4H-1,2,4-triazole-3-carboxamide]
- difference of VFDs or RFFDs between the 2 treatment arms in favor of RIPK1 Inhibitor (600 mg vs placebo, based on mean values, 28-day study period): 3
- difference in mean days (without oxygen support, VFDs, RFFDs) in favor of RIPK1 Inhibitor group (600 mg vs placebo, up to 15-day treatment period): 1 days
- SpO2/FiO2 ratio, raw data, Mean [1]: 298.0
- SpO2/FiO2 ratio, raw data, Median [1]: 306.3
- SpO2/FiO2 ratio, change from baseline, Mean [2]: 16.8
- SpO2/FiO2 ratio, change from baseline, Median [2]: 3.3
- SpO2/FiO2 ratio, raw data, Mean [2]: 314.8
- SpO2/FiO2 ratio, raw data, Median [2]: 290.9
- Change from baseline in SpO2/FiO2 ratio, point estimate (600 mg, Day 02, Efficacy population): 72.02
- median change from baseline in SpO2/FiO2 ratio (600 mg, Day 2): 3.3
- SpO2/FiO2 ratio, change from baseline, Mean [3]: 43.9
- SpO2/FiO2 ratio, change from baseline, Median [3]: 30.9
- SpO2/FiO2 ratio, raw data, Mean [3]: 337.9
- SpO2/FiO2 ratio, raw data, Median [3]: 330.6
- median change in SpO2/FiO2 ratio from baseline (600 mg, Day 3): 29.0
- Change from baseline in SpO2/FiO2 ratio, point estimate (600 mg, Day 03, Efficacy population): 97.90
- SpO2/FiO2 ratio, change from baseline, Mean [4]: 50.8
- SpO2/FiO2 ratio, change from baseline, Median [4]: 47.3
- SpO2/FiO2 ratio, raw data, Mean [4]: 340.4
- SpO2/FiO2 ratio, raw data, Median [4]: 355.5
- median change in SpO2/FiO2 ratio from baseline (600 mg, Day 4): 38.1
- Change from baseline in SpO2/FiO2 ratio, point estimate (600 mg, Day 04, Efficacy population): 104.61
- median change from baseline in SpO2/FiO2 ratio (600 mg, Day 4): 47.3
- SpO2/FiO2 ratio, change from baseline, Mean [5]: 62.7
- SpO2/FiO2 ratio, change from baseline, Median [5]: 69.6
- SpO2/FiO2 ratio, raw data, Mean [5]: 350.5
- SpO2/FiO2 ratio, raw data, Median [5]: 356.1
- median change in SpO2/FiO2 ratio from baseline (600 mg, Day 5): 70.8
- Change from baseline in SpO2/FiO2 ratio, point estimate (600 mg, Day 05, Efficacy population): 121.79
- SpO2/FiO2 ratio, change from baseline, Mean [6]: 72.5
- SpO2/FiO2 ratio, change from baseline, Median [6]: 73.9
- SpO2/FiO2 ratio, raw data, Mean [6]: 358.7
- SpO2/FiO2 ratio, raw data, Median [6]: 384.0
- median change in SpO2/FiO2 ratio from baseline (600 mg, Day 6): 113.8
- Change from baseline in SpO2/FiO2 ratio, point estimate (600 mg, Day 06, Efficacy population): 134.66
- Change from baseline in SpO2/FiO2 ratio, adjusted treatment difference RIPK1 Inhibitor vs placebo [6]: 28.71
- median change from baseline in SpO2/FiO2 ratio (600 mg, Day 6): 73.9
- SpO2/FiO2 ratio, change from baseline, Mean [7]: 89.2
- SpO2/FiO2 ratio, change from baseline, Median [7]: 124.1
- SpO2/FiO2 ratio, raw data, Mean [7]: 367.1
- SpO2/FiO2 ratio, raw data, Median [7]: 418.2
- median change in SpO2/FiO2 ratio from baseline (600 mg, Day 7): 115.3
- Change from baseline in SpO2/FiO2 ratio, point estimate (600 mg, Day 07, Efficacy population): 142.21
- Change from baseline in SpO2/FiO2 ratio, adjusted treatment difference RIPK1 Inhibitor vs placebo [7]: 25.24
- median change from baseline in SpO2/FiO2 ratio (600 mg, Day 7): 124.1
- SpO2/FiO2 ratio, change from baseline, Mean [8]: 99.2
- SpO2/FiO2 ratio, change from baseline, Median [8]: 131.4
- SpO2/FiO2 ratio, raw data, Mean [8]: 371.5
- SpO2/FiO2 ratio, raw data, Median [8]: 433.3
- median change in SpO2/FiO2 ratio from baseline (600 mg, Day 8): 125.6
- SpO2/FiO2 ratio, change from baseline, Mean [9]: 111.2
- SpO2/FiO2 ratio, change from baseline, Median [9]: 150.0
- SpO2/FiO2 ratio, raw data, Mean [9]: 381.8
- SpO2/FiO2 ratio, raw data, Median [9]: 445.2
- SpO2/FiO2 ratio, change from baseline, Mean [10]: 119.8
- SpO2/FiO2 ratio, change from baseline, Median [10]: 133.8
- SpO2/FiO2 ratio, raw data, Mean [10]: 386.7
- SpO2/FiO2 ratio, raw data, Median [10]: 447.6
- SpO2/FiO2 ratio, change from baseline, Mean [11]: 111.0
- SpO2/FiO2 ratio, change from baseline, Median [11]: 153.7
- SpO2/FiO2 ratio, raw data, Mean [11]: 373.2
- SpO2/FiO2 ratio, raw data, Median [11]: 445.2
- SpO2/FiO2 ratio, change from baseline, Mean [12]: 138.8
- SpO2/FiO2 ratio, change from baseline, Median [12]: 190.3
- SpO2/FiO2 ratio, raw data, Mean [12]: 401.0
- SpO2/FiO2 ratio, raw data, Median [12]: 452.4
- SpO2/FiO2 ratio, change from baseline, Mean [13]: 129.1
- SpO2/FiO2 ratio, change from baseline, Median [13]: 195.1
- SpO2/FiO2 ratio, raw data, Mean [13]: 389.5
- SpO2/FiO2 ratio, raw data, Median [13]: 457.1
- SpO2/FiO2 ratio, change from baseline, Mean [14]: 139.4
- SpO2/FiO2 ratio, change from baseline, Median [14]: 192.7
- SpO2/FiO2 ratio, raw data, Mean [14]: 414.8
- SpO2/FiO2 ratio, raw data, Median [14]: 454.8
- SpO2/FiO2 ratio, change from baseline, Mean [15]: 160.6
- SpO2/FiO2 ratio, change from baseline, Median [15]: 195.1
- SpO2/FiO2 ratio, raw data, Mean [15]: 436.0
- SpO2/FiO2 ratio, raw data, Median [15]: 457.1
- median change in SpO2/FiO2 ratio from baseline (600 mg, Day 15): 135.1
- Change from baseline in SpO2/FiO2 ratio, point estimate [15]: 174.65
- median change from baseline in SpO2/FiO2 ratio (600 mg, Day 15): 195.1
- median time to improvement of oxygenation (SpO2 >=92% breathing room air) (600 mg, Kaplan-Meier, Efficacy population): 6 days
- Number of Days without need for Oxygen Support and Alive, Mean [16]: 20.5 days
- Number of Days without need for Oxygen Support and Alive, Median [16]: 23.0 days
- Number of Respiratory Failure-Free Days and Alive, Mean [16]: 25.9 days
- Number of Respiratory Failure-Free Days and Alive, Median [16]: 28.0 days
- Number of Ventilator-Free Days and Alive, Mean [16]: 26.0 days
- Number of Ventilator-Free Days and Alive, Median [16]: 28.0 days
